The values that follow come from patent publication US4539208A, “Combination of thienamycin-type antibiotics with dipeptidase inhibitors” (Merck & Co., Inc., priority 1981, dated 1985).

One may read the ED50 as the midpoint of the dose-response relation.

One data set is described as follows: in vivo. More on the design: species or system dog (male beagle). The following applies: dog, iv, 5 mg/kg. Here is the method:
A male beagle was used for a study of the effect of dipeptidase inhibitors on the urinary recovery of N-formimidoyl thienamycin. In a control study, the dog was given 5 mg/kg IV of the N-formimidoyl thienamycin without inhibitor. A second experiment used the same amount of N-formimidoylthienamycin, but also administered Z-2-isovaleramido-2-butenoic acid in 3 doses, each providing 20 mg/kg of the compound. The first dose was administered just after injection of the N-formimidoylthienamycin, the second at 40 min. and the third at 60 min. […]

The test system of the next data set is Staphalococcus aureus. In words: Systemic efficacy of thienamycin with co-administered inhibitor, Staphylococcus aureus infection in mouse. Format: in vivo.
A short description of data set [1]: Urinary recovery of thienamycin co-administered with dipeptidase inhibitor in the mouse. Type of data set: in vivo, mouse (Charles River CD, female). The following applies: urine, iv, Table II, control, thienamycin 10 mg/kg alone. Here is the method: In addition to this in vitro screen procedure, an in vivo screen was followed to measure the test compound's ability to inhibit metabolism as reflected by increase in urinary recovery of thienamycin from the mouse. The procedure involves co-administration of the test compound by the intravenous or subcutaneous route at a dose-rate of 10-100 mg/kg, with 10 mg/kg thienamycin. Thienamycin recovery in the urine over a 4 hour period is then compared with its recovery in a control group to which test compound was not co-administered.
Urinary recovery of thienamycin was measured in all cases with the use of a cylinder or disc diffusion assay, conducted in a manner described in U.S. Pat. No. 3,950,357. This bioassay, with Staphylococcus aureus ATCC 6538 as the test organism, has a useful response range from 0.04 μg/ml to 3.0 μg/ml.
An in vivo assay on the mouse was conducted as follows: 20 g Charles River CD, female mice were injected subcutaneously with the chosen dose of the chemical inhibitor. About two minutes later, the dose of thienamycin was given intravenously. A control of thienamycin above was also conducted. The level of thienamycin in the urine as a % of dose was measured using a bioassay technique. The two test compound numbers are those from Table I. Compound 7 is Z-2-isovaleramido-2-butenoicacid; compound 10 is Z-2-cyclopropylcarboxamido-2-butenoic acid. […]

The structures appear in SMILES notation.

For `C[C@@H](O)[C@H]1C(=O)N2C(C(=O)O)=C(SCCN=CN)C[C@H]12` [N-formimidoyl thienamycin, N-Formimidoyl thienamycin], the dose excreted at 3 h in “in vivo” is 7.8%.
Consider `C[C@@H](O)[C@H]1C(=O)N2C(C(=O)O)=C(SCCN)C[C@H]12` [Thienamycin], for which the figures for the ED50 in the data set with Staphalococcus aureus (THM +100 mg/kg inhibitor (Z-2-isovaleramido-2-butenoic acid)) and in the data set on Staphalococcus aureus (THM alone) were 0.06 mg/kg and 0.2 mg/kg, respectively. In addition, in data set [1], the dose excreted at 4 h lay in the range of 25 to 30%.
